One assay has as its target T1, BRD4 (BD1) (Homo sapiens, UniProt O60885).
T1 construct: amino acids 67-152, longer constructs also being possible, preferably amino acids 44-168; made in house; host or cells: E. coli
In words: Binding assay BRD4/acetylated peptide H4 (TR-FRET protein-protein interaction assay). The text has this:
To assess the BRD4 binding strength of the substances described in this application, the ability thereof to inhibit the interaction between BRD4 (BD1) and acetylated histone H4 in a dose-dependent manner was quantified.
For this purpose, a time-resolved fluorescence resonance energy transfer (TR-FRET) assay was used, which measures the binding between N-terminally His6-tagged BRD4 (BD1) (amino acids 67-152, longer constructs also being possible, preferably amino acids 44-168) and a synthetic acetylated histone H4 (Ac-H4) peptide with sequence GRGK(Ac)GGK(Ac)GLGK(Ac)GGAK(Ac)RHGSGSK-biotin. The recombinant BRD4 protein produced in-house according to Filippakopoulos et al., Nature, 2010, 468:1119-1123 was expressed in E. coli and purified by means of (Ni-NTA) affinity and (Sephadex G-75) size exclusion chromatography. The Ac-H4 peptide can be purchased, for example, from Biosyntan (Berlin, Germany).
In the assay, typically 11 different concentrations of each substance (0.1 nM, 0.33 nM, 1.1 nM, 3.8 nM, 13 nM, 44 nM, 0.15 μM, 0.51 μM, 1.7 μM, 5.9 μM and 20 μM) were analysed as duplicates on the same microtitre plate. For this purpose, 100-fold concentrated solutions in DMSO were prepared by serial dilutions (1:3.4) of a 2 mM stock solution into a clear, 384-well microtitre plate (Greiner Bio-One, Frickenhausen, Germany). From this, 50 nl were transferred into a black test plate (Greiner Bio-One, Frickenhausen, Germany). The test was started by the addition of 2 μl of a 2.5-fold concentrated BRD4 solution (final concentration typically 10 nM in the 5 μl of reaction volume) in aqueous assay buffer [50 mM HEPES pH 7.5, 50 mM sodium chloride (NaCl), 0.25 mM CHAPS and 0.05% serum albumin (BSA)] to the substances in the test plate. This was followed by a 10-minute incubation step at 22° C. for the pre-equilibration of putative complexes between BRD4 and the substances.
The mixture was then incubated in the dark at 22° C. for one hour and then at 4° C. for at least 3 hours and for no longer than overnight. The formation of BRD4/Ac-H4 complexes was determined by the measurement of the resonance energy transfer from the streptavidin-Eu cryptate to the anti-6His-XL665 antibody present in the reaction. For this purpose, the fluorescence emission was measured at 620 nm and 665 nm after excitation at 330-350 nm in a TR-FRET measuring instrument, for example a Rubystar or Pherastar (both from BMG Lab Technologies, Offenburg, Germany) or a Viewlux (Perkin-Elmer). The ratio of the emissions at 665 nm and at 622 nm was taken as an indicator of the amount of BRD4/Ac-H4 complexes formed.
The data (ratios) obtained were normalized, with 0% inhibition corresponding to the mean from the measurements for a set of controls (typically 32 data points) in which all the reagents were present. In these, in place of test substances, 50 nl of DMSO (100%) were used Inhibition of 100% corresponded to the mean from the measurements for a set of controls (typically 32 data points) in which all the reagents except BRD4 were present. The IC50 was determined by regression analysis based on a 4-parameter equation (minimum, maximum, IC50, Hill; Y=max+(min−max)/(1+(X/IC50)^Hill)).
A general note: TR-FRET usually uses a lanthanide donor and a delayed reading to cut background.

In the next assay the test system is MOLM-13 cells. In words: Cell proliferation assay (alamarBlue), MOLM-13. It counts as cell-based. Particulars: Homo sapiens, Leukaemia, 96 hours, inhibition of cell proliferation. On the procedure: (§1) In accordance with the invention, the ability of the substances to inhibit cell proliferation was determined Cell viability was determined by means of the alamarBlue® reagent (Invitrogen) in a Victor X3 Multilabel Reader (Perkin Elmer). The excitation wavelength was 530 nm and the emission wavelength […].
The MOLM-13 cells (DSMZ, ACC 554) were sown at a concentration of 4000 cells/well in 100 μl of growth medium (RPMI1640, 10% FCS) on 96-well microtitre plates.
(§2) The MDA-MB-231 cells (DSMZ, ACC 732) were sown at a concentration of 4000 cells/well in 100 μl of growth medium (DMEM/Ham's F12 medium, 10% FCS) on 96-well microtitre plates. After overnight incubation at 37° C., the fluorescence values (CI values) were determined. Then the plates were treated with various substance dilutions (1E-5 M, 3E-6 M, 1E-6 M, 3E-7 M, 1E-7 M, 3E-8 M, 1E-8 M) and incubated at 37° C. for 72 (MV-4-11, LOX-IMVI cells), 96 (MOLM-13, B16F10, […] cells), 120 (MOLP-8, KMS-12-PE cells) or 168 (LAPC-4 cells) hours. Subsequently, the fluorescence values were determined (CO values). For the data analysis, the CI values were subtracted from the CO values and the results were compared between cells which had been treated with various dilutions of the substance or only with buffer solution. The ICso values (substance concentration needed for 50% inhibition of cell proliferation) were calculated therefrom.
(§3) The substances were tested in the cell lines in Table 1, which represent the indications specified by way of example: […]
(The colour change of resazurin is a common sign of viable cells or microbes.)

Another assay relates to B16F10 cells. In words: Cell proliferation assay (alamarBlue), B16F10. The note with it: Mus musculus, B16-F10, Melanoma (BRAF wild-type), 96 hours, inhibition of cell proliferation. The assay is classed as cell-based. On the procedure:
as §1
The B16F10 cells (ATCC, CRL-6475) were sown at a concentration of 300-500 cells/well in 100 μl of growth medium (DMEM with phenol red, 10% FCS) on 96-well microtitre plates.
as §2, §3

In a further assay the test system is MOLP-8 cells. In words: Cell proliferation assay (alamarBlue), MOLP-8. It counts as cell-based. The note with it: Homo sapiens, Multiple myeloma, 120 hours, inhibition of cell proliferation. The procedure: as §1
The MOLP-8 cells (DSMZ, ACC 569) were sown at a concentration of 4000 cells/well in 100 μl of growth medium (RPMI1640, 20% FCS) on 96-well microtitre plates.
as §2, §3

A further assay concerns LAPC-4 cells. In words: Cell proliferation assay (alamarBlue), LAPC-4. It counts as cell-based. Particulars: Homo sapiens, LAPC4, Prostate, 1 nM methyltrienolone, 168 hours, inhibition of cell proliferation. On the procedure:
as §1
The LAPC-4 cells (ATCC, PTA-1441TM) were sown at a concentration of 4000 cells/well in 100 μl of growth medium (RPMI1640, 2 mM L-glutamine, 10% cFCS) on 96-well microtitre plates. One day later, the LAPC-4 cells were treated with 1 nM methyltrienolone and various substance dilutions.
as §2, §3

[1] abbreviates: BRD4 (BD1) / acetylated histone H4 peptide, TR-FRET, read-out: IC50 (BRD4).

Structures are written as SMILES. Where two headings read alike, the source gives them in different places.

One may read the IC50 as the point on the concentration scale where inhibition reaches its midpoint. On to `Cc1c2c(cn1C)-n1c(C)nnc1[C@H](CC(=O)N1CCS(=O)(=O)CC1)N=C2c1ccc(Cl)cc1` [Example 8, (−)-2-[(4S)-6-(4-Chlorophenyl)-1,7,8-trimethyl-4,8-dihydropyrrolo[3,4f][1,2,4]triazolo[4,3-a][1,4]diazepin-4-yl]-1-(1,1-dioxidothiomorpholino)ethan-1-one], for which the IC50 worked out at 100 nM at BRD4 (BD1) (setting [1]); 560 nM in the assay on MOLM-13 cells; 670 nM in the assay with B16F10 cells; 440 nM in the assay with MOLP-8 cells; 360 nM with LAPC-4 cells.

Consider `Cc1nnc2n1-c1cn(C)nc1C(c1ccc(Cl)cc1)=NC2CC(=O)N1CCS(=O)(=O)CC1` (stereo not shown) [Example 14, 2-[6-(4-Chlorophenyl)-1,8-dimethyl-4,8-dihydropyrazolo[3,4-f][1,2,4]triazolo[4,3-a][1,4]diazepin-4-yl]-1-(1,1-dioxidothiomorpholin-4-yl)ethanone], for which the IC50 on BRD4 (BD1) (setting [1]) was determined as 640 nM; in the assay with MOLM-13 cells it was 3460 nM; in the assay on MOLP-8 cells, 4000 nM.

Regarding `CCc1noc(C[C@@H]2N=C(c3ccc(Cl)cc3)c3c(cn(C)c3C)-n3c(C)nnc32)n1` [Example 28, (4S)-6-(4-Chlorophenyl)-1,7,8-trimethyl-4-[(3-ethyl-1,2,4-oxadiazol-5-yl)methyl]-4,8-dihydropyrrolo[3,4-f][1,2,4]triazolo[4,3-a][1,4]diazepine], the results for the IC50 on BRD4 (BD1) (setting [1]), with MOLM-13 cells and in the assay with MOLP-8 cells were 30 nM, 70 nM and 40 nM, respectively.

Consider `Cc1c2c(cn1C)-n1c(C)nnc1[C@H](CC(=O)Nc1ccc3c(c1)CC(=O)N3)N=C2c1ccc(Cl)cc1` [Example 13, 2-[(4S)-6-(4-Chlorophenyl)-1,7,8-trimethyl-4,8-dihydropyrrolo[3,4-f][1,2,4]triazolo[4,3-a][1,4]diazepin-4-yl]-N-(2-oxo-2,3-dihydro-1H-indol-5-yl)acetamide], for which the IC50 on BRD4 (BD1) (setting [1]) is 40 nM; with MOLM-13 cells it was 190 nM; in the assay with B16F10 cells, 330 nM; in the assay with MOLP-8 cells, 220 nM; in the assay with LAPC-4 cells, 90 nM.

In the case of `Cc1c2c(cn1C)-n1c(C)nnc1[C@H](CC(=O)OC(C)(C)C)N=C2c1ccc(Cl)cc1` [Example 3], the IC50 was 30 nM at BRD4 (BD1) (setting [1]); 210 nM with MOLM-13 cells; 190 nM in the assay on B16F10 cells; 190 nM with MOLP-8 cells; 100 nM in the assay with LAPC-4 cells.

For the compound `COC(=O)C[C@@H]1N=C(c2ccc(Cl)cc2)c2nn(C)cc2-n2c(C)nnc21` [Example 6, 2-[(4S)-6-(4-Chlorophenyl)-1,8-dimethyl-4,8-dihydropyrazolo[3,4-f][1,2,4]triazolo[4,3-a][1,4]diazepin-4-yl]acetic acid methyl ester], the IC50 at BRD4 (BD1) turned out to be 140 nM; in the assay with MOLM-13 cells it was 450 nM; in the assay with B16F10 cells, 550 nM; with MOLP-8 cells, 450 nM; in the assay with LAPC-4 cells, 250 nM.

Turning to `COC(=O)C[C@@H]1N=C(c2ccc(Cl)cc2)c2c(cnn2C)-n2c(C)nnc21` [Example 7, 2-[(4S)-6-(4-Chlorophenyl)-1,7-dimethyl-4,7-dihydropyrazolo[3,4-f][1,2,4]triazolo[4,3-a][1,4]diazepin-4-yl]acetic acid methyl ester], the values for the IC50 on BRD4 (BD1), with MOLM-13 cells and with MOLP-8 cells were 230 nM, 740 nM and 450 nM, respectively.

Take `Cc1noc(C[C@@H]2N=C(c3ccc(Cl)cc3)c3c(cn(C)c3C)-n3c(C)nnc32)n1` [Example 26, (4S)-6-(4-Chlorophenyl)-1,7,8-trimethyl-4-[(3-methyl-1,2,4-oxadiazol-5-yl)methyl]-4,8-dihydropyrrolo[3,4-f][1,2,4]triazolo[4,3-a][1,4]diazepine]: the values for the IC50 at BRD4 (BD1) (setting [1]), in the assay on MOLM-13 cells and in the assay with MOLP-8 cells were 20 nM, 80 nM and 50 nM, respectively.

As to `Cc1c2c(cn1C)-n1c(C)nnc1[C@H](CC(=O)N(C)CC1(C)COC1)N=C2c1ccc(Cl)cc1` [Example 11, (−)-2-[(4S)-6-(4-Chlorophenyl)-1,7,8-trimethyl-4,8-dihydropyrrolo[3,4f][1,2,4]triazolo[4,3-a][1,4]diazepin-4-yl]-N-methyl-N-[(3-methyloxetan-3-yl)methyl]acetamide], the IC50 on BRD4 (BD1) (setting [1]) amounted to 220 nM; with MOLM-13 cells, 1990 nM; in the assay on B16F10 cells it was 1400 nM; in the assay with LAPC-4 cells it was 810 nM.

Consider `Cc1c2c(cn1C)-n1c(C)nnc1[C@H](Cc1nc(C(C)C)no1)N=C2c1ccc(Cl)cc1` [Example 30, (4S)-6-(4-Chlorophenyl)-1,7,8-trimethyl-4-{[3-(propan-2-yl)-1,2,4-oxadiazol-5-yl]methyl}-4,8-dihydropyrrolo[3,4-f][1,2,4]triazolo[4,3-a][1,4]diazepine], for which the IC50 at BRD4 (BD1) (setting [1]) was 30 nM; in the assay with MOLM-13 cells, 70 nM; in the assay with MOLP-8 cells, 50 nM.

With `Cc1c2c(cn1C)-n1c(C)nnc1[C@H](CC(=O)N1CCC(=O)C1)N=C2c1ccc(Cl)cc1` [Example 12], the IC50 stood at 110 nM at BRD4 (BD1) (setting [1]), 480 nM in the assay on MOLM-13 cells, 600 nM with B16F10 cells and 220 nM in the assay on LAPC-4 cells.

`Cc1c2c(cn1C)-n1c(C)nnc1C(Cc1nc(C(C)(C)C)no1)N=C2c1ccc(Cl)cc1` (stereo not shown) [Example 31, 4-[(3-tert-Butyl-1,2,4-oxadiazol-5-yl)methyl]-6-(4-chlorophenyl)-1,7,8-trimethyl-4,8-dihydropyrrolo[3,4-f][1,2,4]triazolo[4,3-a][1,4]diazepine]: the IC50 on BRD4 (BD1) (setting [1]) is 490 nM; in the assay with MOLM-13 cells, 490 nM; in the assay with LAPC-4 cells, 350 nM.

For the origin of these results see patent US20150376196A1, “4-SUBSTITUTED PYRROLO- AND PYRAZOLO-DIAZEPINES” (BAYER PHARMA AKTIENGESELLSCHAFT, priority 2013, published 2015).
